Columns and labels:
[1] = Ratio of kinetic parameters of Vmax to Km was reported
C8166 = test: Compound was evaluated for the inhibition of p24 viral antigen production in C-8166 cells.; type: functional, cell-based; conditions: Homo sapiens
Human alphaherpesvirus 1 [2] = test: Inhibitory activity against HSV-1 replication; type: functional, organism-based
MT4 [3] = test: Compound was evaluated for the inhibition of HIV-1 induced cytopathic effect in MT-4 cells.; type: functional, cell-based; conditions: Homo sapiens
Human betaherpesvirus 5 [4] = test: Inhibition of HCMV replication in MRC-5 cells; No inhibition; type: functional, organism-based; conditions: mrc5
Human betaherpesvirus 5 [5] = test: Inhibition of HCMV replication in Vero cells at 250 uM; No inhibition; type: functional, organism-based
MT4 [6] = test: Compound was evaluated for the concentration required to reduce the viability of MT-4 cells.; type: functional; conditions: Homo sapiens
Vero = test: Cytotoxicity against Vero cells up to 250 uM; Not active; type: functional, cell-based, Chlorocebus sabaeus
Human alphaherpesvirus 1 [7] = test: Tested for activity against HSV-1; Not active; type: functional, organism-based
Human alphaherpesvirus 1 [8] = test: Anti-HSV-1 activity at 300 uM; Not active; type: functional, organism-based

Row | Structure (SMILES) | Ratio [1] | EC50 (C8166) | IC50 (Human alphaherpesvirus 1 [2]) | EC50 (MT4 [3]) | IC50 (Human betaherpesvirus 5 [4]) | IC50 (Human betaherpesvirus 5 [5]) | CC50 (MT4 [6]) | IC50 (Vero) | IC50 (Human alphaherpesvirus 1 [7]) | IC50 (Human alphaherpesvirus 1 [8])
1 | Nc1nc2c(ncn2[C@@H]2O[C@H](COP(=O)(O)O)[C@H](O)[C@@H]2O)c(=O)[nH]1 | 100 | – | – | – | – | – | – | – | – | –
2 | Nc1ncnc2c1ncn2CCOCP(=O)(O)O [ADEFOVIR] | – | 1.5 µM | 117 µM | 20 µM | – | – | – | – | – | –
3 | C=C(/C=C/P(=O)(O)O)CCn1cnc2c(O)nc(N)nc21 | 102 | 8 µM | – | 49 µM | Not Active | Not Active | > 1000 µM | Not Active | Not Active | –
4 | O=c1[nH]cnc2c1ncn2[C@H]1CC[C@@H](CO)O1 [DIDANOSINE] | – | 0.9 µM | – | 13 µM | – | – | > 1000 µM | – | – | –
5 | C=C(/C=C/P(=O)(O)O)Cn1cnc2c(O)nc(N)nc21 | 1.8 | – | 119 µM | > 100 µM | Not Active | Not Active | > 1000 µM | Not Active | – | Not Active
6 | Cc1cn([C@H]2C[C@H](N=[N+]=[N-])[C@@H](CO)O2)c(=O)[nH]c1=O [ZIDOVUDINE] | – | 0.04 µM | – | 0.04 µM | – | – | – | – | – | –
